ChEMBL document CHEMBL4888484, “Replenishing the malaria drug discovery pipeline: Screening and hit evaluation of the MMV Hit Generation Library 1 (HGL1) against asexual blood stage Plasmodium falciparum ,using a nano luciferase reporter read-out” (2022)

Columns and labels:
Plasmodium falciparum [1] = assay: Hit confirmation in dose-response curve in NF54 nanoGlo assay, at 72h; type: functional, organism-based, Erythrocyte; design: timepoint 72 hour
Plasmodium falciparum [2] = assay: Hit confirmation in dose-response curve in Dd2 pLDH assay, at 72h; type: functional, organism-based; design: timepoint 72 hour; conditions: Dd2, Erythrocyte
Plasmodium falciparum [3] = assay: Hit confirmation in dose-response curve in NF54 nanoGlo assay, at 12h; type: functional, organism-based, Erythrocyte; design: timepoint 12 hour
[4] = Hit confirmation in dose-response curve in HepG2 cytotoxicity assay, at 72h; type: toxicity, cell-based; design: timepoint 72 hour; conditions: human, HepG2 cells
Plasmodium falciparum [5] = assay: Hit confirmation in dose-response curve in NF54 pLDH assay, at 72h; type: functional, organism-based; design: timepoint 72 hour; conditions: NF54, Erythrocyte
[6] = Re-testing in dose-response curve in HepG2 cytotoxicity assay, at 72h; type: toxicity, cell-based; design: timepoint 72 hour; conditions: human, HepG2 cells
Plasmodium falciparum [7] = assay: Re-testing in dose-response curve in 3D7 pLDH assay, at 72h; type: functional, organism-based; design: timepoint 72 hour; conditions: 3D7, Erythrocyte
[8] = Plasmodium falciparum, NF54, Erythrocyte, 72 h
[9] = Plasmodium falciparum, NF54, Erythrocyte, 12 h

| IC50 (Plasmodium falciparum [1]; [8]) [nM] | IC50 (Plasmodium falciparum [2]) [nM] | IC50 (Plasmodium falciparum [3]; [9]) [nM] | IC50 (Plasmodium falciparum [5]) [nM] | IC50 (Plasmodium falciparum [7]) [nM] | IC50 (Plasmodium falciparum [1]; erythrocyte) [nM] | IC50 (Plasmodium falciparum [3]; erythrocyte) [nM] | Structure (SMILES) | IC50 at 72 h [4] [µM] | IC50 at 72 h [6] [µM] |
| --- | --- | --- | --- | --- | --- | --- | --- | --- | --- |
| 1100 | 1200 | > 10000 | 2690 | 1050 | – | – | C[C@H](N)c1ccc(Nc2ncc3cc(-c4ccncc4)ccc3n2)cc1 | > 10 | 11.4 |
| 724 | 1000 | 1580 | 1020 | 488 | – | – | Cc1noc(C)c1CN1C[C@@H]2Oc3cc(F)ccc3C(=O)N(C)[C@@H]2C1 | > 10 | > 25 |
| 1050 | 794 | > 10000 | 3630 | 347 | – | – | COc1ccc(-c2cc(C(=O)N[C@H]3CCN(c4ccc(=O)n(C)n4)C3)c(C)n2C)cc1 | > 10 | > 25 |
| – | 1230 | – | 2400 | 1130 | 813 | 1170 | CC(C)c1ccc(-c2nc(CN3CCCCC3)cc(CN3CCCCC3)c2O)cc1 | > 10 | > 25 |
| 1620 | 1700 | 2820 | 1290 | 3000 | – | – | Cc1ccnc(Nc2ccc(N3CCNCC3)nn2)c1 | > 10 | > 25 |
| 832 | 1120 | 1000 | 871 | 575 | – | – | Nc1ncc(C(=O)N2CCC3(CCCCCC3)C2)s1 | > 10 | > 25 |
| 589 | 589 | 2400 | 1000 | 534 | – | – | CC(C)c1ccc2ncnc(N[C@H]3CCc4[nH]cnc4C3)c2c1 | > 10 | > 25 |
| 1480 | 1700 | > 10000 | 1780 | 1460 | – | – | Cc1nc(N)nc(C)c1C(=O)Nc1ccc(Nc2ncccn2)cc1 | > 10 | > 25 |
| 355 | 537 | 501 | 1100 | 416 | – | – | O=C(Nc1cc(N2CCCS2(=O)=O)ccc1O)c1cccc(Oc2cccc(C(F)(F)F)c2)c1 | > 10 | 20.8 |
